Values after ≈ are worked out from the molar mass of the structure shown.
Columns and labels:
[1] = tested on: 9KB (human nasopharyngeal carcinoma); assay: 9KB cytotoxicity; type: cell-based
Procedure: Occasional checks in the potato disc (PD) assay assured us that antitumor activity was present [Ferrigni et al., J. Nat. Prod., 45; 679-686 (1982)]. Cytotoxicity tests were performed at the Purdue Cell Culture Laboratory, Purdue Cancer Center, using standard protocols for 9KB (human nasopharyngeal carcinoma) and 9PS (a chemically-induced murine lymphocytic leukemia) [Suffness et al., Methods In Cancer Research. Vol. 16: 73 (1979), V. T. DeVita, Jr. and H. Busch eds., Academic Press, New York], 9ASK (astrocytoma reversal) [Lgarashi et al., Cell Struct. and Funct., 3: 107 (1978)], A-549 (human lung carcinoma) [Giard et al., J. Nat. Cancer Inst., 51: 1417-1423 (1973)], and HT-29 (human colon adenocarcinoma) [Fogh J. (ed.), Human Tumor Cells, In Vitro, Plenum Press, New York: 115-159 (1975)].
Anticancer activity is a potential use even for the crude extract. The bioassay results for the lethality of brine shrimp (BST), the inhibition of crown gall tumors on potato discs (PD), the reversal in morphology of db-cAMP induced AC glioma cells from that of mature, differentiated astrocytes to that of immature AC glioma cells (mouse brain cells) (9ASK), the dose that inhibits cell growth to one-half that of untreated poorly differentiated human epidermic carcinoma (9KB), the dose that inhibits cell growth to one-half that of a methylcholanthrene-induced lymphoid neoplasm in a DBA/2 mouse (9PS), and the percent displacement in a protein kinase C test for initial extract fractions are shown in Table 1. Obviously, the bioactivity is concentrated in F005.

protein kinase C = protein kinase C displacement test; type: binding; conditions: 10 μM
[2] = tested on: corn root worm (CRW) Diabrotics undecimcuntata howardii; type: in vivo; conditions: at 24 ppm
Procedure: (§1) Pesticidal bioassays were conducted at Eli Lilly Laboratories (Greenfield, Ind.) following standard procedures with eight indicator organisms: mosquito larvae (ML) Aedes aegypti (in the media), blowfly larvae (BFL) (1% in the diet), corn root worm (CRW) Diabrotics undecimcuntata howardii (in soil), two-spotted spider mite (2SSM) Tetranychus urticae (on foliage), southern army worm (SAW) Spodoptera eridania (on foliage), melon aphid (MA) (5000 ppm on foliage), cotton aphid (CA) Aphis gossypii, (on foliage) and Haemonchus contortus (HC) (a nematode, 0.1% in the media).
(§2) Pesticidal bioassays on initial fractions were conducted at Eli Lilly Laboratories (Greenfield, Ind.) following standard procedures with seven indicator organisms: mosquito larvae (ML), blow fly larvae (BFL), corn root worm (CRW), two-spotted spider mite (2SSM), southern army worm (SAW), melon aphid (MA), and Haemonchus contortus (HC).

[3] = tested on: two-spotted spider mite (2SSM) Tetranychus urticae; type: in vivo; conditions: at 10 ppm
Procedure: as §1, §2

[4] = tested on: cotton aphid (CA) Aphis gossypii; assay: pesticidal bioassay, cotton aphid (CA); type: in vivo; conditions: at 1 ppm
Procedure: as §1

HOLT-4 = assay: NCI in vitro cytotoxicity, leukemia; type: cell-based; conditions: Homo sapiens
K562 = assay: NCI in vitro cytotoxicity, leukemia; type: cell-based; conditions: Homo sapiens
H522 = assay: NCI in vitro cytotoxicity, non-small cell lung cancer; type: cell-based; conditions: Homo sapiens
H125 = assay: as above; type: cell-based; conditions: Homo sapiens
H460 = assay: as above; type: cell-based; conditions: Homo sapiens
EKV-X = assay: as above; type: cell-based; conditions: Homo sapiens, EKVX
H82 = assay: NCI in vitro cytotoxicity, small cell lung cancer; type: cell-based; conditions: Homo sapiens
H524 = assay: NCI in vitro cytotoxicity, small cell lung cancer; type: cell-based; conditions: Homo sapiens
H69 = assay: NCI in vitro cytotoxicity, small cell lung cancer; type: cell-based; conditions: Homo sapiens
H146 = assay: NCI in vitro cytotoxicity, small cell lung cancer; type: cell-based; conditions: Homo sapiens
SW620 = assay: NCI in vitro cytotoxicity, colon cancer; type: cell-based; conditions: Homo sapiens, SW-620
TE-671 = assay: NCI in vitro cytotoxicity, CNS cancer; type: cell-based; conditions: Homo sapiens
U251 = assay: NCI in vitro cytotoxicity, CNS cancer; type: cell-based; conditions: Homo sapiens, U-251
SNB-19 = assay: NCI in vitro cytotoxicity, CNS cancer; type: cell-based; conditions: Homo sapiens
SNB-44 = assay: NCI in vitro cytotoxicity, CNS cancer; type: cell-based; conditions: Homo sapiens, SNB44
SK-MEL5 = assay: NCI in vitro cytotoxicity, melanoma; type: cell-based; conditions: Homo sapiens, SK-MEL-5
MALME-3M = assay: NCI in vitro cytotoxicity, melanoma; type: cell-based; conditions: Homo sapiens
SK-MEL2 = assay: NCI in vitro cytotoxicity, melanoma; type: cell-based; conditions: Homo sapiens, SK-MEL-2
A2780 = assay: NCI in vitro cytotoxicity, ovarian cancer; type: cell-based; conditions: Homo sapiens
OVCAR-4 = assay: NCI in vitro cytotoxicity, ovarian cancer; type: cell-based; conditions: Homo sapiens
A498 = assay: NCI in vitro cytotoxicity, renal cancer; type: cell-based; conditions: Homo sapiens
A704 = assay: NCI in vitro cytotoxicity, renal cancer; type: cell-based; conditions: Homo sapiens
CAKI-1 = assay: NCI in vitro cytotoxicity, renal cancer; type: cell-based; conditions: Homo sapiens

CCCCCCCCCCC(O)C1CCC(C2CCC(C(O)CCCCCCCCCCC(O)CC3=CC(C)OC3=O)O2)O1 (stereo not shown) [Bullatacin]
9KB ED50 [1]: 6.188e-11 ng/mL
displacement in a protein kinase C test (protein kinase C): 7%
toxicity to southern corn rootworm [2]: significantly toxic
toxicity to two-spotted spider mites [3]: significantly toxic
toxicity to cotton aphids [4]: significantly toxic
IC50 (HOLT-4): 1.41 µg/mL (≈ 2.26 µM)
IC90 (HOLT-4): 4.72 µg/mL (≈ 7.58 µM)
IC50 (K562): < 0.000926 µg/mL
IC90 (K562): 4.5 µg/mL (≈ 7.22 µM)
IC50 (H522): 2.46 µg/mL (≈ 3.95 µM)
IC90 (H522): > 9.24 µg/mL
IC50 (H125): 2.4 µg/mL (≈ 3.85 µM)
IC90 (H125): > 9.26 µg/mL
IC50 (H460): 0.0287 ng/mL (≈ 4.61e-05 µM)
IC90 (H460): 0.000185 µg/mL (≈ 0.000297 µM)
IC50 (EKV-X): 0.000115 µg/mL (≈ 0.000185 µM)
IC90 (EKV-X): > 0.0926 µg/mL
IC50 (H82): 1.99 µg/mL (≈ 3.19 µM)
IC90 (H82): 7.14 µg/mL (≈ 11.5 µM)
IC50 (H524): 2.69 µg/mL (≈ 4.32 µM)
IC90 (H524): 7.54 µg/mL (≈ 12.1 µM)
IC50 (H69): 2.44 µg/mL (≈ 3.92 µM)
IC90 (H69): 7.52 µg/mL (≈ 12.1 µM)
IC90 (H146): > 9.26 µg/mL
IC50 (SW620): 0.00564 µg/mL (≈ 0.00905 µM)
IC90 (SW620): 5.66 µg/mL (≈ 9.09 µM)
IC50 (TE-671): 0.0256 ng/mL (≈ 4.11e-05 µM)
IC90 (TE-671): 0.00274 µg/mL (≈ 0.0044 µM)
IC50 (U251): < 0.00924 ng/mL
IC90 (U251): 0.0437 ng/mL (≈ 7.02e-05 µM)
IC50 (SNB-19): > 0.926 µg/mL
IC90 (SNB-19): > 0.926 µg/mL
IC50 (SNB-44): 4.42 µg/mL (≈ 7.1 µM)
IC90 (SNB-44): > 9.26 µg/mL
IC50 (SK-MEL5): > 0.000926 µg/mL
IC90 (SK-MEL5): 5.22 µg/mL (≈ 8.38 µM)
IC50 (MALME-3M): 2.82 µg/mL (≈ 4.53 µM)
IC90 (MALME-3M): 7.67 µg/mL (≈ 12.3 µM)
IC90 (SK-MEL2): 8.64 µg/mL (≈ 13.9 µM)
IC50 (A2780): 0.0377 ng/mL (≈ 6.05e-05 µM)
IC90 (A2780): 0.00065 µg/mL (≈ 0.00104 µM)
IC50 (OVCAR-4): > 0.0924 µg/mL
IC90 (OVCAR-4): > 0.0924 µg/mL
IC50 (A498): 0.0424 ng/mL (≈ 6.81e-05 µM)
IC90 (A498): 0.00371 µg/mL (≈ 0.00596 µM)
IC50 (A704): 1.36 µg/mL (≈ 2.18 µM)
IC90 (A704): 8 µg/mL (≈ 12.8 µM)
IC50 (CAKI-1): 0.00394 µg/mL (≈ 0.00632 µM)
IC90 (CAKI-1): > 0.0924 µg/mL
